From ChEMBL document CHEMBL6153110, “Peptide Double-Stapling and Arginine N-Glycosylation Triggered the Development of Therapeutic Antimicrobial Peptides Capable of Killing Drug-Resistant Bacteria in Mice” (J Med Chem, 2025)
Converted amounts (≈) assume the structure as drawn. Starred links: 1 amine or outer side, 2 acyl side, 3 side chain; linkers in the order of their positions; H or OH if unused. Positions of bridges follow the written chain, without caps; N, C: chain ends. Non-standard residues stand in square brackets, D forms with d. Residues, ends and D or L forms follow the SMILES beside them. X1 = N=C(NCCC[C@H](N[*:1])C(=O)[*:2])N[C@@H]1O[C@H](CO)[C@@H](O[C@H]2O[C@H](CO)[C@@H](O[C@H]3O[C@H](CO)[C@@H](O)[C@H](O)[C@H]3O)[C@H](O)[C@H]2O)[C@H](O)[C@H]1O; X2 = CC(=O)N[C@@H]1[C@@H](O)[C@H](O)[C@@H](CO)O[C@H]1NC(=N)NCCC[C@H](N[*:1])C(=O)[*:2]; R8 = C=CCCCCCC[C@@](C)(N)C(=O)O; S5 = C=CCCC[C@](C)(N)C(=O)O

Key:
Pseudomonas aeruginosa = assay: Antimicrobial activity against Pseudomonas aeruginosa ATCC 27853 assessed as growth inhibition measured after 8 hrs incubation by standard broth dilution assay; assay type: functional
Klebsiella pneumoniae = assay: Antimicrobial activity against Klebsiella pneumoniae ATCC 13883 assessed as growth inhibition measured after 8 hrs incubation by standard broth dilution assay; assay type: functional
Streptococcus pneumoniae = assay: Antimicrobial activity against Streptococcus pneumoniae ATCC 49619 assessed as growth inhibition measured after 8 hrs incubation by standard broth dilution assay; assay type: functional
Staphylococcus aureus = assay: Antimicrobial activity against methicillin-resistant Staphylococcus aureus ATCC 43300 assessed as growth inhibition measured after 8 hrs incubation by standard broth dilution assay; assay type: functional
[1] = Hemolytic activity in BALB/c mouse red blood cells assessed as hemolysis incubated for 1 hrs; assay type: toxicity, cell-based, Erythrocyte; settings: read-out: HD50

Row | Structure (SMILES) | MIC (Pseudomonas aeruginosa) [µg/mL] | MIC (Klebsiella pneumoniae) [µg/mL] | MIC (Streptococcus pneumoniae) [µg/mL] | MIC (Staphylococcus aureus) [µg/mL] | HC50 at 1 h [1] [µg/mL]
1 | CC(=O)N[C@@H](CCCCN)C(=O)N[C@@H](CCCCN)C(=O)N[C@@H](CCCNC(=N)N)C(=O)N[C@@H](CCCCN)C(=O)N[C@@H](Cc1c[nH]c2ccccc12)C(=O)N[C@@H](CCCCN)C(=O)N[C@@H](CCCNC(=N)N)C(=O)N[C@@]1(C)CCC/C=C\CCC[C@@](C)(C(=O)N[C@@H](CCCCN)C(=O)N[C@@]2(C)CCC/C=C\CCC[C@@](C)(C(=O)N[C@@H](CC(C)C)C(=O)N[C@@H](CCCCN)C(=O)N[C@@H](CCCCN)C(=O)N3CCC[C@H]3C(=O)N[C@H](C(=O)N[C@@H](CCCNC(=N)N)C(N)=O)C(C)C)NC(=O)[C@H](CCCNC(=N)N)NC(=O)[C@H](Cc3c[nH]c4ccccc34)NC(=O)[C@H](Cc3ccc(O)cc3)NC2=O)NC(=O)[C@H](CC(C)C)NC(=O)[C@H](CCCCN)NC(=O)[C@H](Cc2ccccc2)NC1=O (Ac-KKRKWKR[S5]FKL[S5]K[S5]YWR[S5]LKKPVR-NH2; staple (Z) 8-12, 14-18) | 2.6 (≈ 0.784 µM) | 10.1 (≈ 3.05 µM) | 2.4 (≈ 0.724 µM) | 2.5 (≈ 0.754 µM) | 26.5
2 | CC(=O)N[C@@H](CCCCN)C(=O)N[C@@H](CCCCN)C(=O)N[C@@H](CCCNC(=N)N)C(=O)N[C@H](C(=O)N[C@@H](CCCCN)C(=O)N[C@@H](CCCCN)C(=O)N[C@@H](CCCNC(=N)N)C(=O)N[C@@]1(C)CCC/C=C\CCC[C@@](C)(C(=O)N[C@@H](CCCCN)C(=O)N[C@@]2(C)CCC/C=C\CCC[C@@](C)(C(=O)N[C@@H](CC(C)C)C(=O)N[C@@H](CCCCN)C(=O)N[C@@H](CCCCN)C(=O)N3CCC[C@H]3C(=O)N[C@H](C(=O)N[C@@H](CCCNC(=N)N)C(N)=O)C(C)C)NC(=O)[C@H](CCCNC(=N)N)NC(=O)[C@H](Cc3c[nH]c4ccccc34)NC(=O)[C@H](Cc3ccc(O)cc3)NC2=O)NC(=O)[C@H](CC(C)C)NC(=O)[C@H](CCCCN)NC(=O)[C@H](Cc2ccccc2)NC1=O)C(C)C (Ac-KKRVKKR[S5]FKL[S5]K[S5]YWR[S5]LKKPVR-NH2; staple (Z) 8-12, 14-18) | 2.6 (≈ 0.805 µM) | 2.5 (≈ 0.774 µM) | 2.4 (≈ 0.743 µM) | 2.5 (≈ 0.774 µM) | 56.3
3 | CC(=O)N[C@@H](CCCCN)C(=O)N[C@@H](CCCCN)C(=O)N[C@@H](CCCNC(=N)N)C(=O)N[C@H](C(=O)N[C@@H](CCCCN)C(=O)N[C@@H](CCCCN)C(=O)N[C@@H](CCCNC(=N)N)C(=O)N[C@@]1(C)CCC/C=C\CCC[C@@](C)(C(=O)N[C@@H](CCCCN)C(=O)N[C@@]2(C)CCC/C=C\CCC[C@@](C)(C(=O)N[C@@H](CC(C)C)C(=O)N[C@@H](CCCCN)C(=O)N[C@@H](CCCCN)C(=O)N3CCC[C@H]3C(=O)N[C@H](C(=O)N[C@@H](CCCNC(=N)N[C@@H]3O[C@H](CO)[C@@H](O[C@H]4O[C@H](CO)[C@@H](O[C@H]5O[C@H](CO)[C@@H](O)[C@H](O)[C@H]5O)[C@H](O)[C@H]4O)[C@H](O)[C@H]3O)C(N)=O)C(C)C)NC(=O)[C@H](CCCNC(=N)N)NC(=O)[C@H](Cc3c[nH]c4ccccc34)NC(=O)[C@H](Cc3ccc(O)cc3)NC2=O)NC(=O)[C@H](CC(C)C)NC(=O)[C@H](CCCCN)NC(=O)[C@H](Cc2ccccc2)NC1=O)C(C)C (Ac-KKRVKKR[S5]FKL[S5]K[S5]YWR[S5]LKKPV[X1]-NH2; staple (Z) 8-12, 14-18) | 2.6 (≈ 0.7 µM) | 1.1 (≈ 0.296 µM) | 1.1 (≈ 0.296 µM) | 1.1 (≈ 0.296 µM) | 80.8
4 | CC(=O)N[C@@H]1[C@@H](O)[C@H](O)[C@@H](CO)O[C@H]1NC(=N)NCCC[C@H](NC(=O)[C@@H](NC(=O)[C@@H]1CCCN1C(=O)[C@H](CCCCN)NC(=O)[C@H](CCCCN)NC(=O)[C@H](CC(C)C)NC(=O)[C@]1(C)CCC/C=C\CCC[C@](C)(NC(=O)[C@H](CCCCN)NC(=O)[C@]2(C)CCC/C=C\CCC[C@](C)(NC(=O)[C@H](CCCNC(=N)N)NC(=O)[C@H](CCCCN)NC(=O)[C@H](CCCCN)NC(=O)[C@@H](NC(=O)[C@H](CCCNC(=N)N)NC(=O)[C@H](CCCCN)NC(=O)[C@H](CCCCN)NC(C)=O)C(C)C)C(=O)N[C@@H](Cc3ccccc3)C(=O)N[C@@H](CCCCN)C(=O)N[C@@H](CC(C)C)C(=O)N2)C(=O)N[C@@H](Cc2ccc(O)cc2)C(=O)N[C@@H](Cc2c[nH]c3ccccc23)C(=O)N[C@@H](CCCNC(=N)N)C(=O)N1)C(C)C)C(N)=O (Ac-KKRVKKR[S5]FKL[S5]K[S5]YWR[S5]LKKPV[X2]-NH2; staple (Z) 8-12, 14-18) | 2.6 (≈ 0.758 µM) | 2.5 (≈ 0.729 µM) | 2.4 (≈ 0.699 µM) | 2.5 (≈ 0.729 µM) | 82.2
5 | CC(=O)N[C@@H](CCCCN)C(=O)N[C@@H](CCCCN)C(=O)N[C@@H](CCCNC(=N)N)C(=O)N[C@H](C(=O)N[C@@H](Cc1c[nH]c2ccccc12)C(=O)N[C@@H](CCCCN)C(=O)N[C@@H](CCCNC(=N)N)C(=O)N[C@H](C(=O)N[C@@H](Cc1ccccc1)C(=O)N[C@@H](CCCCN)C(=O)N[C@@H](CC(C)C)C(=O)N[C@@H](CC(C)C)C(=O)N[C@@H](CCCCN)C(=O)N[C@@]1(C)CCC/C=C\CCC[C@@](C)(C(=O)N[C@@H](CC(C)C)C(=O)N[C@@H](CCCCN)C(=O)N[C@@H](CCCCN)C(=O)N2CCC[C@H]2C(=O)N[C@H](C(=O)N[C@@H](CCCNC(=N)N)C(N)=O)C(C)C)NC(=O)[C@H](CCCNC(=N)N)NC(=O)[C@H](Cc2c[nH]c3ccccc23)NC(=O)[C@H](Cc2ccc(O)cc2)NC1=O)C(C)C)C(C)C (Ac-KKRVWKRVFKLLK[S5]YWR[S5]LKKPVR-NH2; staple (Z) 14-18) | 2.9 (≈ 0.893 µM) | 4.9 (≈ 1.51 µM) | 2.4 (≈ 0.739 µM) | 4.9 (≈ 1.51 µM) | 19.2
6 | CC(=O)N[C@@H](CCCCN)C(=O)N[C@@H](CCCCN)C(=O)N[C@@H](CCCNC(=N)N)C(=O)N[C@H](C(=O)N[C@@H](Cc1c[nH]c2ccccc12)C(=O)N[C@@H](CCCCN)C(=O)N[C@@H](CCCNC(=N)N)C(=O)N[C@@]1(C)CCC/C=C\CCC[C@@](C)(C(=O)N[C@@H](CCCCN)C(=O)N[C@@]2(C)CCC/C=C\CCC[C@@](C)(C(=O)N[C@@H](CC(C)C)C(=O)N[C@@H](CCCCN)C(=O)N[C@@H](CCCCN)C(=O)N3CCC[C@H]3C(=O)N[C@H](C(=O)N[C@@H](CCCNC(=N)N)C(N)=O)C(C)C)NC(=O)[C@H](CCCNC(=N)N)NC(=O)[C@H](Cc3c[nH]c4ccccc34)NC(=O)[C@H](CCCCN)NC2=O)NC(=O)[C@H](CC(C)C)NC(=O)[C@H](CCCCN)NC(=O)[C@H](Cc2ccccc2)NC1=O)C(C)C (Ac-KKRVWKR[S5]FKL[S5]K[S5]KWR[S5]LKKPVR-NH2; staple (Z) 8-12, 14-18) | 2.6 (≈ 0.8 µM) | 38 (≈ 11.7 µM) | 4.7 (≈ 1.45 µM) | 2.5 (≈ 0.769 µM) | 88.4
7 | CC(=O)N[C@@H](CCCCN)C(=O)N[C@@H](CCCCN)C(=O)N[C@@H](CCCNC(=N)N)C(=O)N[C@H](C(=O)N[C@@H](Cc1c[nH]c2ccccc12)C(=O)N[C@@H](CCCCN)C(=O)N[C@@H](CCCNC(=N)N)C(=O)N[C@@]1(C)CCC/C=C\CCC[C@@](C)(C(=O)N[C@@H](CCCCN)C(=O)N[C@@]2(C)CCC/C=C\CCC[C@@](C)(C(=O)N[C@@H](CC(C)C)C(=O)N[C@@H](CCCCN)C(=O)N[C@@H](CCCCN)C(=O)N3CCC[C@H]3C(=O)N[C@H](C(=O)N[C@@H](CCCNC(=N)N)C(N)=O)C(C)C)NC(=O)[C@H](CCCNC(=N)N)NC(=O)[C@H](CCCCN)NC(=O)[C@H](Cc3ccc(O)cc3)NC2=O)NC(=O)[C@H](CC(C)C)NC(=O)[C@H](CCCCN)NC(=O)[C@H](Cc2ccccc2)NC1=O)C(C)C (Ac-KKRVWKR[S5]FKL[S5]K[S5]YKR[S5]LKKPVR-NH2; staple (Z) 8-12, 14-18) | 2.6 (≈ 0.805 µM) | 2.5 (≈ 0.774 µM) | 4.7 (≈ 1.46 µM) | 2.5 (≈ 0.774 µM) | 38.7
8 | CC(=O)N[C@]1(C)CCCCCC/C=C\CCC[C@@](C)(C(=O)N[C@@H](Cc2ccccc2)C(=O)N[C@@H](CCCCN)C(=O)N[C@@H](CC(C)C)C(=O)N[C@@H](CC(C)C)C(=O)N[C@@H](CCCCN)C(=O)N[C@@H](CCCNC(=N)N)C(=O)N[C@@H](Cc2ccc(O)cc2)C(=O)N[C@@H](Cc2c[nH]c3ccccc23)C(=O)N[C@@H](CCCNC(=N)N)C(=O)N[C@@H](CCC(N)=O)C(=O)N[C@@H](CC(C)C)C(=O)N[C@@H](CCCCN)C(=O)N[C@@H](CCCCN)C(=O)N2CCC[C@H]2C(=O)N[C@H](C(=O)N[C@@H](CCCNC(=N)N)C(N)=O)C(C)C)NC(=O)[C@H](CCCNC(=N)N)NC(=O)[C@H](CCCCN)NC(=O)[C@H](Cc2c[nH]c3ccccc23)NC(=O)[C@H](C(C)C)NC(=O)[C@H](CCCNC(=N)N)NC(=O)[C@H](CCCCN)NC1=O (Ac-[R8]KRVWKR[S5]FKLLKRYWRQLKKPVR-NH2; staple (Z) 1-8) | 9.8 (≈ 2.93 µM) | 38 (≈ 11.4 µM) | 9.6 (≈ 2.87 µM) | 4.9 (≈ 1.46 µM) | 
9 | CC(=O)N[C@@]1(C)CCC/C=C\CCC[C@@](C)(C(=O)N[C@@H](CCCCN)C(=O)N[C@@H](CCCNC(=N)N)C(=O)N[C@H](C(=O)N[C@@H](Cc2ccccc2)C(=O)N[C@@H](CCCCN)C(=O)N[C@@H](CC(C)C)C(=O)N[C@@H](CC(C)C)C(=O)N[C@@H](CCCCN)C(=O)N[C@@H](CCCNC(=N)N)C(=O)N[C@@H](Cc2ccc(O)cc2)C(=O)N[C@@H](Cc2c[nH]c3ccccc23)C(=O)N[C@@H](CCCNC(=N)N)C(=O)N[C@@H](CCC(N)=O)C(=O)N[C@@H](CC(C)C)C(=O)N[C@@H](CCCCN)C(=O)N[C@@H](CCCCN)C(=O)N2CCC[C@H]2C(=O)N[C@H](C(=O)N[C@@H](CCCNC(=N)N)C(N)=O)C(C)C)C(C)C)NC(=O)[C@H](C(C)C)NC(=O)[C@H](CCCNC(=N)N)NC(=O)[C@H](CCCCN)NC1=O (Ac-[S5]KRV[S5]KRVFKLLKRYWRQLKKPVR-NH2; staple (Z) 1-5) | 2.6 (≈ 0.808 µM) | 38 (≈ 11.8 µM) | 37.7 (≈ 11.7 µM) | 2.5 (≈ 0.777 µM) | 
